Drawing on ChEMBL document CHEMBL4622887, “Antibacterial Pentacyclic Polyketides from a Soil-Derived Streptomyces” (2020), this text covers MIC for 19 molecules.

Broadly, the MIC is the lowest concentration found to suppress growth.

Holding throughout (type): functional
In assay [1] the test system is Staphylococcus aureus. Description: Antibacterial activity against methicillin-resistant Staphylococcus aureus shhs-A1 incubated for 16 hrs by broth microdilution method. The following applies: shhs-A1, 16 h. In general terms: Dilution methods test growth across graded concentrations, often in twofold steps.
In assay [2] the test system is Staphylococcus aureus. Description: Antibacterial activity against Staphylococcus aureus ATCC 6538 incubated for 16 hrs by broth microdilution method. Particulars: ATCC 6538, 16 h.
A further assay relates to Escherichia coli. The assay is described as follows: Antibacterial activity against Escherichia coli ATCC 8099 incubated for 16 hrs by broth microdilution method. The following applies: ATCC 8099, 16 h.
Another assay deals with Bacillus spizizenii. Description: Antibacterial activity against Bacillus subtilis ATCC 6633 incubated for 16 hrs by broth microdilution method. Particulars: ATCC 6633, 16 h.

The structures appear in SMILES notation. Converted amounts (≈) assume the structure as drawn.

Consider `COc1cc(-c2c(O)cc(OC)c(Cl)c2C)c2c(O)c3c(cc2c1)C(C)(C)c1cc(O)cc(O)c1C3=O`, for which the MIC worked out at 3.13 µg/mL (≈ 6.01 µM) with Staphylococcus aureus [1], 6.25 µg/mL (≈ 12 µM) against Staphylococcus aureus [2], 3.13 µg/mL (≈ 6.01 µM) in the assay with Escherichia coli and 6.25 µg/mL (≈ 12 µM) against Bacillus spizizenii.

As to `COc1cc(O)c(-c2cc(OC)c(Cl)c3c2C(=O)[C@@]2(O)C(=O)c4c(O)cc(O)cc4C(C)(C)[C@H]2C3)c(C)c1Cl`, the MIC in the assay with Staphylococcus aureus [1] amounted to 1.56 µg/mL (≈ 2.72 µM); against Staphylococcus aureus [2], 0.39 µg/mL (≈ 0.68 µM); in the assay on Escherichia coli, 1.56 µg/mL (≈ 2.72 µM); against Bacillus spizizenii, 1.56 µg/mL (≈ 2.72 µM).

Turning to `NC[C@H]1O[C@H](O[C@H]2[C@H](O)[C@@H](O[C@H]3O[C@H](CO)[C@@H](O)[C@H](N)[C@H]3O)[C@H](N)C[C@@H]2N)[C@H](O)[C@@H](O)[C@@H]1O` [KANAMYCIN], the figures for the MIC against Staphylococcus aureus [2], in the assay with Escherichia coli and with Bacillus spizizenii were 1.56 µg/mL (≈ 3.22 µM), 50 µg/mL (≈ 103 µM) and 0.78 µg/mL (≈ 1.61 µM), respectively.

Consider `CN[C@H](CC(C)C)C(=O)N[C@H]1C(=O)N[C@@H](CC(N)=O)C(=O)N[C@H]2C(=O)N[C@H]3C(=O)N[C@H](C(=O)N[C@H](C(=O)O)c4cc(O)cc(O)c4-c4cc3ccc4O)[C@H](O)c3ccc(c(Cl)c3)Oc3cc2cc(c3O[C@@H]2O[C@H](CO)[C@@H](O)[C@H](O)[C@H]2O[C@H]2C[C@](C)(N)[C@H](O)[C@H](C)O2)Oc2ccc(cc2Cl)[C@H]1O` [VANCOMYCIN], for which, in the assay on Staphylococcus aureus [1], it took 1.56 µg/mL (≈ 1.08 µM) to inhibit growth (MIC).

Take `COc1cc2c(c(-c3c(O)cc(OC)c(Cl)c3C)c1)C(=O)[C@@]1(O)C(=O)c3c(O)cc(O)cc3C(C)(C)[C@H]1C2`: the MIC turned out to be 3.13 µg/mL (≈ 5.81 µM) in the assay on Staphylococcus aureus [1], 3.13 µg/mL (≈ 5.81 µM) against Staphylococcus aureus [2], 3.13 µg/mL (≈ 5.81 µM) against Escherichia coli and 6.25 µg/mL (≈ 11.6 µM) against Bacillus spizizenii.

Turning to `COc1cc(OC)c(-c2cc(OC)c(Cl)c3c2C(=O)[C@@]2(O)C(=O)c4c(O)cc(O)cc4C(C)(C)[C@H]2C3)c(C)c1Cl`, the MIC with Staphylococcus aureus [1] amounted to 25 µg/mL (≈ 42.6 µM); against Staphylococcus aureus [2], 6.25 µg/mL (≈ 10.6 µM); in the assay on Escherichia coli, 25 µg/mL (≈ 42.6 µM); against Bacillus spizizenii, 25 µg/mL (≈ 42.6 µM).

As for `COc1cc(C)c(-c2cc(OC)cc3cc4c(c(O)c23)C(=O)c2c(O)cc(O)cc2C4(C)C)c(O)c1`, the MIC is 3.13 µg/mL (≈ 6.43 µM) with Staphylococcus aureus [1], 3.13 µg/mL (≈ 6.43 µM) against Staphylococcus aureus [2], 3.13 µg/mL (≈ 6.43 µM) against Escherichia coli and 6.25 µg/mL (≈ 12.8 µM) in the assay on Bacillus spizizenii.

Turning to `COc1cc(O)c(-c2cc(O)cc3cc4c(c(O)c23)C(=O)c2c(O)cc(O)cc2C4(C)C)c(C)c1Cl`, the MIC was 1.56 µg/mL (≈ 3.08 µM) in the assay on Staphylococcus aureus [1], 3.13 µg/mL (≈ 6.17 µM) against Staphylococcus aureus [2], 3.13 µg/mL (≈ 6.17 µM) against Escherichia coli and 3.13 µg/mL (≈ 6.17 µM) against Bacillus spizizenii.

Take `COc1cc(OC)c(-c2cc(OC)c(Cl)c3c2C(=O)[C@@]2(O)C(=O)c4c(O)cc(O)c(Cl)c4C(C)(C)[C@H]2C3)c(C)c1Cl`: the MIC in the assay on Staphylococcus aureus [1] came out at 3.13 µg/mL (≈ 5.03 µM); against Staphylococcus aureus [2] it was 3.13 µg/mL (≈ 5.03 µM); against Escherichia coli, 1.56 µg/mL (≈ 2.51 µM); in the assay on Bacillus spizizenii, 1.56 µg/mL (≈ 2.51 µM).

In the case of `COc1cc(C)c(-c2cc(OC)c(Cl)c3c2C(=O)[C@@]2(O)C(=O)c4c(O)cc(O)c(Cl)c4C(C)(C)[C@H]2C3)c(OC)c1`, the MIC against Staphylococcus aureus [1] turned out to be 1.56 µg/mL (≈ 2.66 µM); against Staphylococcus aureus [2] it was 0.78 µg/mL (≈ 1.33 µM); with Escherichia coli it was 1.56 µg/mL (≈ 2.66 µM); against Bacillus spizizenii it was 3.13 µg/mL (≈ 5.33 µM).

With `COc1cc(C)c(-c2cc(OC)cc3cc4c(c(O)c23)C(=O)c2c(O)cc(O)cc2C4(C)C)c(OC)c1`, the MIC with Staphylococcus aureus [1] was determined as 1.56 µg/mL (≈ 3.12 µM); against Staphylococcus aureus [2] it was 3.13 µg/mL (≈ 6.25 µM); against Escherichia coli it was 1.56 µg/mL (≈ 3.12 µM); with Bacillus spizizenii, 3.13 µg/mL (≈ 6.25 µM).

In the case of `COc1cc(C)c(-c2cc(O)c(Cl)c3cc4c(c(O)c23)C(=O)c2c(O)cc(OC)cc2C4(C)C)c(OC)c1`, the MIC in the assay on Staphylococcus aureus [1], against Staphylococcus aureus [2], with Escherichia coli and with Bacillus spizizenii was 6.25 µg/mL (≈ 11.7 µM) each time.

Take `COc1cc(C)c(-c2cc(O)c(Cl)c3c2C(=O)[C@@]2(O)C(=O)c4c(O)cc(O)cc4C(C)(C)[C@H]2C3)c(O)c1`: the MIC against Staphylococcus aureus [2] came out at 12.5 µg/mL (≈ 23.8 µM); against Escherichia coli it was 25 µg/mL (≈ 47.6 µM); in the assay with Bacillus spizizenii, 50 µg/mL (≈ 95.2 µM).

On to `COc1cc(C)c(-c2cc(OC)c(Cl)c3c2C(=O)[C@@]2(O)C(=O)c4c(O)c(Cl)c(O)c(Cl)c4C(C)(C)[C@H]2C3)c(OC)c1`, for which the MIC amounted to 0.2 µg/mL (≈ 0.322 µM) in the assay with Staphylococcus aureus [1], 0.39 µg/mL (≈ 0.627 µM) against Staphylococcus aureus [2], 0.78 µg/mL (≈ 1.25 µM) against Escherichia coli and 0.39 µg/mL (≈ 0.627 µM) in the assay on Bacillus spizizenii.

With `COc1cc(OC)c(-c2cc(OC)c(Cl)c3c2C(=O)[C@@]2(O)C(=O)c4c(cc(O)c(Cl)c4O)C(C)(C)[C@H]2C3)c(C)c1Cl`, the MIC in the assay with Staphylococcus aureus [1] stood at 3.13 µg/mL (≈ 5.03 µM); in the assay on Staphylococcus aureus [2] it was 6.25 µg/mL (≈ 10 µM); in the assay on Escherichia coli it was 12.5 µg/mL (≈ 20.1 µM); with Bacillus spizizenii, 3.13 µg/mL (≈ 5.03 µM).

On to `COc1cc(C)c(-c2cc(OC)c(Cl)c3c2C(=O)[C@@]2(O)C(=O)c4c(O)cc(O)cc4C(C)(C)[C@H]2C3)c(O)c1`, for which the MIC stood at 6.25 µg/mL (≈ 11.6 µM) with Staphylococcus aureus [1], 6.25 µg/mL (≈ 11.6 µM) against Staphylococcus aureus [2], 3.13 µg/mL (≈ 5.81 µM) in the assay with Escherichia coli and 6.25 µg/mL (≈ 11.6 µM) with Bacillus spizizenii.

On to `COc1cc(O)cc(C)c1-c1cc(O)c(Cl)c2cc3c(c(O)c12)C(=O)c1c(O)cc(O)cc1C3(C)C`, for which the MIC in the assay on Staphylococcus aureus [1] amounted to 3.13 µg/mL (≈ 6.17 µM); in the assay on Staphylococcus aureus [2] it was 1.56 µg/mL (≈ 3.08 µM); in the assay with Escherichia coli, 6.25 µg/mL (≈ 12.3 µM); against Bacillus spizizenii, 6.25 µg/mL (≈ 12.3 µM).

As for `COc1cc(C)c(-c2cc(OC)c(Cl)c3cc4c(c(O)c23)C(=O)c2c(O)cc(O)cc2C4(C)C)c(OC)c1`, the MIC in the assay on Staphylococcus aureus [1] is 3.13 µg/mL (≈ 5.85 µM); in the assay on Staphylococcus aureus [2] it was 3.13 µg/mL (≈ 5.85 µM); with Escherichia coli it was 3.13 µg/mL (≈ 5.85 µM); in the assay on Bacillus spizizenii, 12.5 µg/mL (≈ 23.4 µM).

As for `COc1cc(C)c(-c2cc(OC)c(Cl)c3c2C(=O)[C@@]2(O)C(=O)c4c(O)cc(O)cc4C(C)(C)[C@H]2C3)c(OC)c1`, the MIC in the assay with Staphylococcus aureus [1] amounted to 1.56 µg/mL (≈ 2.82 µM); against Staphylococcus aureus [2] it was 3.13 µg/mL (≈ 5.66 µM); against Escherichia coli, 3.13 µg/mL (≈ 5.66 µM); in the assay with Bacillus spizizenii, 3.13 µg/mL (≈ 5.66 µM).
